In patent publication US9709558B2, “Compound arrays for sample profiling” (priority 2009, dated 2017):

Legend:
KLH = assay: Anti-KLH serum IgG ELISA in immunized mice; type: in vivo; settings: archived murine serum samples
whole virus = assay: Serum IgG ELISA against whole virus in immunized mice; type: in vivo; settings: archived murine serum samples
influenza A/PR/8/34 = type: in vivo, BALB/c mice; settings: lethal challenge with influenza A/PR/8/34

Substance: keyhole limpet hemocyanin [KLH]
- average anti-KLH IgG titer (KLH): 819,000
- average IgG titer against whole virus (whole virus): 800
- outcome following lethal challenge (influenza A/PR/8/34): no benefit over naives
